Reference: US20260138988A1, “Spiropyrrolidine Derived Antiviral Agents” (Enanta Pharmaceuticals, Inc., priority 2021, published 2026)

These compounds were tested against SARS-CoV-2 3CL-protease (Severe acute respiratory syndrome coronavirus 2, UniProt P0DTD1) (assay: SARS-CoV-2 3C-Like (3CL) Protease Fluorescence Assay (FRET)). Settings: IC50, SARS-CoV-2 3CL-protease 10 nM, test compounds 0-10 μM, duplicate.
Format: biochemical

SMILES	IC50
C[C@H](NC(=O)C(F)(F)C(F)(F)C(F)(F)F)C(=O)N(C)[C@@H](C)C(=O)N1C[C@]2(C[C@H]1C#N)C(=O)Nc1ccccc12 [Example 198]	< 100 nM

Same assay, conditions: SARS-CoV-2 3CL-protease 10 nM, test compounds 0-10 μM, duplicate, read-out: IC50

SMILES	IC50
C[C@H](NC(=O)c1cc(OC(F)(F)F)c2ncccc2c1)C(=O)N(C)[C@@H](CC(C)(C)C)C(=O)N1C[C@]2(C[C@H]1C#N)C(=O)Nc1ccccc12 [Example 210]	< 100 nM
C[C@H](NC(=O)C(F)(F)C(F)(F)F)C(=O)N(C)[C@@H](Cc1ccccc1)C(=O)N1C[C@]2(C[C@H]1C#N)C(=O)Nc1ccccc12 [Example 268]	< 100 nM
C[C@H](NC(=O)c1cc2c(F)cc(F)c(F)c2[nH]1)C(=O)N(C)[C@@H](CC(C)(C)C)C(=O)N1C[C@]2(C[C@H]1C#N)C(=O)Nc1ccccc12 [Example 208]	< 100 nM
CCCC(F)(F)C(=O)N[C@@H](C)C(=O)N(CC)[C@@H](CC(C)C)C(=O)N1C[C@]2(C[C@H]1C#N)C(=O)Nc1ccccc12 [Example 369]	< 100 nM
CN(C(=O)[C@@H]1C[C@@H]2CCCC[C@@H]2N1C(=O)C(F)(F)F)[C@@H](CC(C)(C)C)C(=O)N1C[C@]2(C[C@H]1C#N)C(=O)Nc1ccccc12 [Example 177]	100 to 1000 nM
CC(C)C[C@@H](C(=O)N1C[C@]2(C[C@H]1C#N)C(=O)Nc1ccccc12)N(C)C(=O)[C@@H]1[C@@H]2C[C@@H]2CN1C(C)C [Example 251]	100 to 1000 nM
CCCC(F)(F)C(=O)N[C@@H](C)C(=O)N(C)[C@@H](CC(C)C)C(=O)N1C[C@]2(C[C@H]1C#N)C(=O)Nc1ccccc12 [Example 277]	< 100 nM
C[C@H](NC(=O)c1cc2ccccc2n1-c1ccccc1)C(=O)N(C)[C@@H](CC(C)(C)C)C(=O)N1C[C@]2(C[C@H]1C#N)C(=O)Nc1ccccc12 [Example 281]	< 100 nM
C[C@H](NC(=O)c1ccc(OC2CC2)c(OC2CC2)c1)C(=O)N(C)[C@@H](CC(C)(C)C)C(=O)N1C[C@]2(C[C@H]1C#N)C(=O)Nc1ccccc12 [Example 216]	< 100 nM
CC(C)C[C@@H](C(=O)N1C[C@]2(C[C@H]1C#N)C(=O)Nc1ccccc12)N(C)C(=O)[C@H](C)NC(=O)c1c(F)ccc2ccoc12 [Example 187]	< 100 nM
CC(C)C[C@@H](C(=O)N1C[C@]2(C[C@H]1C#N)C(=O)Nc1ccccc12)N(C)C(=O)[C@H](C)NC(=O)C(F)(F)CC(C)C [Example 142]	< 100 nM
CC(C)(C)C[C@H](NC(=O)[C@H](CC1CC1)NC(=O)OC1CC1)C(=O)N1C[C@]2(C[C@H]1C#N)C(=O)Nc1ccccc12 [Example 331]	100 to 1000 nM
CC(C)(C)C[C@H](NC(=O)[C@@H](NC(=O)C1(c2ccccc2)CC1)c1ccccc1)C(=O)N1C[C@]2(C[C@H]1C#N)C(=O)Nc1ccccc12 [Example 248]	< 100 nM
CC(C)C[C@@H](C(=O)N1C[C@]2(C[C@H]1C#N)C(=O)Nc1ccccc12)N(C)C(=O)[C@H](C)NC(=O)c1ccc(F)cc1C(F)(F)F [Example 145]	< 100 nM
C[C@H](NC(=O)C(C)(F)F)C(=O)N(C)[C@@H](Cc1ccccc1)C(=O)N1C[C@]2(C[C@H]1C#N)C(=O)Nc1ccccc12 [Example 269]	< 100 nM
CC(C)C[C@@H](C(=O)N1C[C@]2(C[C@H]1C#N)C(=O)Nc1ccccc12)N(C)C(=O)[C@H](C)NC(=O)c1c(F)ccc2[nH]ccc12 [Example 185]	< 100 nM
CC(C)C[C@@H](C(=O)N1C[C@]2(C[C@H]1C#N)C(=O)Nc1ccccc12)N(C)C(=O)[C@@H]1C[C@H]2C[C@H]2N1C [Example 260]	< 100 nM
C[C@H](NC(=O)c1cccc2cc(Cl)ccc12)C(=O)N(C)[C@@H](CC(C)(C)C)C(=O)N1C[C@]2(C[C@H]1C#N)C(=O)Nc1ccccc12 [Example 284]	< 100 nM
CN(C(=O)[C@@H]1C[C@@H](c2ccccc2)CN1)[C@@H](CC(C)(C)C)C(=O)N1C[C@]2(C[C@H]1C#N)C(=O)Nc1ccccc12 [Example 232]	< 100 nM
CC(C)C[C@@H](C(=O)N1C[C@]2(C[C@H]1C#N)C(=O)Nc1ccccc12)N(C)C(=O)[C@@H]1[C@@H]2C[C@@H]2CN1C [Example 253]	100 to 1000 nM
CC(C)(C)C[C@H](NC(=O)[C@H](CC1CC1)NC1CCCCC1)C(=O)N1C[C@]2(C[C@H]1C#N)C(=O)Nc1ccccc12 [Example 316]	100 to 1000 nM
C[C@H](NC(=O)c1c(F)c(F)c(F)c(F)c1F)C(=O)N(C)[C@@H](CC(C)(C)C)C(=O)N1C[C@]2(C[C@H]1C#N)C(=O)Nc1ccccc12 [Example 300]	< 100 nM
CC(C)C[C@@H](C(=O)N1C[C@]2(C[C@H]1C#N)C(=O)Nc1ccccc12)N(C)C(=O)[C@@H]1CC2(CCCC2)CN1C1CC1 [Example 256]	< 100 nM
CC(C)C[C@@H](C(=O)N1C[C@]2(C[C@H]1C#N)C(=O)Nc1ccccc12)N(C)C(=O)[C@H](C)NC(=O)C1(C(F)(F)F)CC1 [Example 297]	< 100 nM
CC(C)C[C@@H](C(=O)N1C[C@]2(C[C@H]1C#N)C(=O)Nc1ccccc12)N(C)C(=O)[C@H](C)NC(=O)C(F)(F)C(C)C [Example 276]	< 100 nM
CC(C)N1[C@H](C(=O)N(C)[C@@H](CC(C)(C)C)C(=O)N2C[C@]3(C[C@H]2C#N)C(=O)Nc2ccccc23)CC[C@@H]1C(F)(F)F [Example 235]	100 to 1000 nM
C[C@H](NC(=O)c1ccc(Cl)c(Cl)c1)C(=O)N(C)[C@@H](CC(C)(C)C)C(=O)N1C[C@]2(C[C@H]1C#N)C(=O)Nc1ccccc12 [Example 212]	< 100 nM

SMILES	IC50
CN(C(=O)c1cc2c([nH]1)CN(C(=O)C(F)(F)F)CC2)[C@@H](CC(C)(C)C)C(=O)N1C[C@]2(C[C@H]1C#N)C(=O)Nc1ccccc12 [Example 175]	100 to 1000 nM
CC[C@H](NC(=O)c1ccc(F)cc1C(F)(F)F)C(=O)N(C)[C@@H](CC(C)C)C(=O)N1C[C@]2(C[C@H]1C#N)C(=O)Nc1ccccc12 [Example 194]	< 100 nM
CC(C)C[C@@H](C(=O)N1C[C@]2(C[C@H]1C#N)C(=O)Nc1ccccc12)N(C)C(=O)[C@@H]1C[C@H]2C[C@H]2N1C1CC1 [Example 258]	< 100 nM
C[C@H](NC(=O)c1cccc2cc(F)ccc12)C(=O)N(C)[C@@H](CC(C)(C)C)C(=O)N1C[C@]2(C[C@H]1C#N)C(=O)Nc1ccccc12 [Example 215]	< 100 nM
CC(C)(C)C[C@H](NC(=O)[C@H](CC1CC1)NC(=O)c1cnn(C2CC2)c1)C(=O)N1C[C@]2(C[C@H]1C#N)C(=O)Nc1ccccc12 [Example 323]	< 100 nM
C[C@H](NC(=O)c1cc(F)c2nn(C3CC3)cc2c1)C(=O)N(C)[C@@H](CC(C)(C)C)C(=O)N1C[C@]2(C[C@H]1C#N)C(=O)Nc1ccccc12 [Example 220]	< 100 nM
CCN(C(=O)[C@H](C)NC(=O)c1ccc(Cl)c(Cl)c1)[C@@H](CC(C)C)C(=O)N1C[C@]2(C[C@H]1C#N)C(=O)Nc1ccccc12 [Example 364]	< 100 nM
C[C@@H]1NC(=O)CCCc2ccc3c(c2)[C@@]2(C[C@@H](C#N)N(C2)C(=O)[C@H](CC(C)(C)C)N(C)C1=O)C(=O)N3 [Example 378]	< 100 nM
CC(C)C[C@H](C(=O)N1C[C@]2(C[C@H]1C#N)C(=O)Nc1ccccc12)n1cccc(NS(=O)(=O)C2CC2)c1=O [Example 359]	100 to 1000 nM
C[C@H](NC(=O)c1ccc(F)cc1)C(=O)N[C@@H](CC(C)(C)C)C(=O)N1C[C@]2(C[C@H]1C#N)C(=O)Nc1ccccc12 [Example 218]	< 100 nM
CC(C)(C)C[C@H](NC(=O)[C@H](CC1CC1)NC(=O)OC1CC1)C(=O)N1C[C@]2(C[C@H]1C#N)C(=O)Nc1ccccc12 [Example 311]	< 100 nM
C[C@H](NC(=O)C(F)(F)F)C(=O)N(C)[C@@H](CC1CC1)C(=O)N1C[C@]2(C[C@H]1C#N)C(=O)Nc1ccccc12 [Example 203]	< 100 nM
C[C@@H]1NC(=O)CCCCc2ccc3c(c2)[C@@]2(C[C@@H](C#N)N(C2)C(=O)[C@H](CC(C)(C)C)N(C)C1=O)C(=O)N3 [Example 377]	< 100 nM
CC(C)C[C@@H](C(=O)N1C[C@]2(C[C@H]1C#N)C(=O)Nc1ccccc12)N(C)C(=O)[C@H](C)NC(=O)C1(F)CCC1 [Example 272]	< 100 nM
CC(C)C[C@@H](C(=O)N1C[C@]2(C[C@H]1C#N)C(=O)Nc1ccccc12)N(C)C(=O)[C@H](C)NC(=O)C(C)(C)C(F)(F)F [Example 283]	< 100 nM
C[C@H](NC(=O)c1ccc2c(c1)OC(F)(F)O2)C(=O)N(C)[C@@H](CC(C)(C)C)C(=O)N1C[C@]2(C[C@H]1C#N)C(=O)Nc1ccccc12 [Example 280]	< 100 nM
CC(C)C[C@@H](C(=O)N1C[C@]2(C[C@H]1C#N)C(=O)Nc1ccccc12)n1cccc(NC(=O)OC(C)(C)C)c1=O [Example 354]	100 to 1000 nM
CCN1C[C@H]2C[C@H]2[C@H]1C(=O)N(C)[C@@H](CC(C)C)C(=O)N1C[C@]2(C[C@H]1C#N)C(=O)Nc1ccccc12 [Example 254]	100 to 1000 nM
C[C@H](NC(=O)C(F)(F)C(F)(F)F)C(=O)N(C)[C@@H](CC(C)(C)C)C(=O)N1C[C@]2(C[C@H]1C#N)C(=O)N(C)c1ccccc12 [Example 348]	< 100 nM
C[C@H](NC(=O)/C=C/c1ccc(F)cc1)C(=O)N(C)[C@@H](CC(C)(C)C)C(=O)N1C[C@]2(C[C@H]1C#N)C(=O)Nc1ccccc12 [Example 242]	< 100 nM
CC(C)C[C@@H](C(=O)N1C[C@]2(C[C@H]1C#N)C(=O)Nc1ccccc12)N(C)C(=O)[C@H](C)NC(=O)C1CC1(C)C (stereo partly drawn) [Example 265]	< 100 nM
CCN1[C@H](C(=O)N(C)[C@@H](CC(C)C)C(=O)N2C[C@]3(C[C@H]2C#N)C(=O)Nc2ccccc23)CCC1(C)C [Example 240]	< 100 nM
C[C@H](NC(=O)c1ccc(C(C)(C)C)cc1)C(=O)N(C)[C@@H](CC(C)(C)C)C(=O)N1C[C@]2(C[C@H]1C#N)C(=O)Nc1ccccc12 [Example 213]	< 100 nM
C[C@H](NC(=O)c1ccccc1-c1ccccc1)C(=O)N(C)[C@@H](CC(C)(C)C)C(=O)N1C[C@]2(C[C@H]1C#N)C(=O)Nc1ccccc12 [Example 282]	< 100 nM
CC(C)C[C@@H](C(=O)N1C[C@]2(C[C@H]1C#N)C(=O)Nc1ccccc12)N(C)C(=O)[C@H](C)NC(=O)c1cc2occc2cc1F [Example 188]	< 100 nM
C[C@H](NC(=O)c1ccc(S(C)(=O)=O)cc1)C(=O)N(C)[C@@H](CC(C)(C)C)C(=O)N1C[C@]2(C[C@H]1C#N)C(=O)Nc1ccccc12 [Example 287]	< 100 nM
